Test results as given in PMC10167629, “Computer-aided design of a cyclic di-AMP synthesizing enzyme CdaA inhibitor” (microLife, 2023).

Experiments:
[1] = biological target: T1, Lm CdaA (∆100CdaA) (Listeria monocytogenes, UniProt Q8Y5E4); assay: crystal structure by soaking; format: binding; details: active site, chain A
T1 construct: gene dacA; DAC domain, lacks transmembrane domain and linker (first 100 residues deleted); N-terminal GST tag cut with PreScission protease; plasmid pGEXpBP33, E. coli BL21(DE3); residues to at least 268 mentioned (96-104 and 256-268 disordered); non-catalytic back-to-back dimer in crystal
T1 sequence (Q8Y5E4 101-273): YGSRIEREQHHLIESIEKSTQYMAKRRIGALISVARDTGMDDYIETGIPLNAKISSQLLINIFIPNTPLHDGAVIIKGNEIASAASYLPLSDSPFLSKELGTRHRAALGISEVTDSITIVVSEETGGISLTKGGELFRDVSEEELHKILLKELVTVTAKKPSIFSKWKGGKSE

[2] = biological target: T1, Lm CdaA (∆100CdaA); assay: ITC, […] binding model

| Structure (SMILES) | crystal structure by soaking [1] | Kd [2] [µM] |
| --- | --- | --- |
| Nc1ncnc2c1ncn2[C@@H]1O[C@H](CO)[C@@H](O)[C@H]1O [adenosine] | we have determined crystal structures of CdaA complexes with adenine (Fig. 3B), adenosine (Fig. 3C) | – |
| CC(=O)Nc1nc(C)c(-c2csc(N)n2)s1 [compound 7] | – | 16.3 ± 2.5 |
